Assay results reported in US20240294541A1, “COMPOUNDS CONSTITUTING C20-MODIFIED SALINOMYCIN DERIVATIVES, A METHOD FOR OBTAINING THE SAME, A COMPOSITION CONTAINING THE SAME AND A USE OF SAID COMPOUNDS” (FILECLO SPOLKA Z OGRANICZONA ODPOWIEDZIALNOSCIA, priority 2021, published 2024).

Columns and labels:
Format in all cases: cell-based
[1] = tested on: SNU-16 (human gastric cancer); test: cells; conditions: Table 4; for IC50: SNU-16 human gastric cancer cells, read-out: IC50 (nM) SNU-16; for SI SNU-16: selectivity coefficient vs normal BALB/3T3 fibroblasts
Hs294T (human melanoma) = test: cells; conditions: Table 4; for IC50: Hs 294T, Hs294T human melanoma cells, read-out: IC50 (nM) Hs294T; for SI Hs294T: selectivity coefficient vs normal BALB/3T3 fibroblasts
[2] = tested on: PLC/PRF/5 (human liver cancer); test: cells; conditions: Table 4; for IC50: PLC/PRF/5 human liver cancer cells, read-out: IC50 (nM) PLC/PRF/5; for SI PLC/PRF/5: selectivity coefficient vs normal BALB/3T3 fibroblasts
[3] = tested on: A2780Cis (cisplatin-resistant human ovarian cancer); test: In vitro cytotoxicity, SRB assay, A2780Cis; conditions: for IC50: Homo sapiens, A2780cis, read-out: IC50 (nM) A2780Cis
[4] = tested on: MV-4-11 (human biphenotypic leukaemia); test: In vitro cytotoxicity, MTT assay, MV-4-11; conditions: for IC50: Homo sapiens, MV4-11, read-out: IC50 (nM) MV4-11
[5] = tested on: MIA PaCa-2 (human pancreatic cancer); test: cells; conditions: Table 4; for IC50: MIA PaCa-2 human pancreatic cancer cells, read-out: IC50 (nM) MIA PaCa-2; for SI MIA PaCa-2: selectivity coefficient vs normal BALB/3T3 fibroblasts
[6] = tested on: NCI-H358 (human lung cancer); test: cells; conditions: Table 4; for IC50: NCI-H358 human lung cancer cells, read-out: IC50 (nM) NCI-H358; for SI NCI-H358: selectivity coefficient vs normal BALB/3T3 fibroblasts
[7] = tested on: BALB/3T3 (normal mouse fibroblasts); test: In vitro cytotoxicity, SRB assay, normal BALB/3T3 fibroblasts; conditions: Table 4; BALB/3T3 normal mouse fibroblasts; read-out: IC50 (nM) BALB3T3 normal cells

Compound	IC50 [1] [nM]	SI SNU-16 [1]	IC50 (Hs294T (human melanoma)) [nM]	SI Hs294T (Hs294T (human melanoma))	IC50 [2] [nM]	SI PLC/PRF/5 [2]	SI A2780Cis [3]	IC50 [3] [nM]	SI MV4-11 [4]	IC50 [4] [nM]	IC50 [5] [nM]	SI MIA PaCa-2 [5]	IC50 [6] [nM]	SI NCI-H358 [6]	IC50 [7] [nM]
CC[C@@H](C(=O)[C@@H](C)[C@@H](O)[C@H](C)[C@@H]1O[C@@H]([C@@H](CC)C(=O)O)CC[C@@H]1C)[C@H]1O[C@]2(C=C[C@@H](NC(=O)OC(CCl)CCl)[C@]3(CC[C@@](C)([C@H]4CC[C@](O)(CC)[C@H](C)O4)O3)O2)[C@H](C)C[C@@H]1C [FLC-00440-1•Na]	400	0.3	130	0.9	9.5	12.1	26.1	4.41	32.6	3.52	43.6	2.6	60.2	1.91	115
CC[C@@H](C(=O)[C@@H](C)[C@@H](O)[C@H](C)[C@@H]1O[C@@H]([C@@H](CC)C(=O)O)CC[C@@H]1C)[C@H]1O[C@]2(C=C[C@@H](NC(=O)C(=O)NC3CC3)[C@]3(CC[C@@](C)([C@H]4CC[C@](O)(CC)[C@H](C)O4)O3)O2)[C@H](C)C[C@@H]1C [FLC-00441-1•Na]	2600	0.4	969	1.2	208	5.4	25.7	43.8	42.5	26.5	373	3.0	930	1.21	1120
CC[C@@H](C(=O)[C@@H](C)[C@@H](O)[C@H](C)[C@@H]1O[C@@H]([C@@H](CC)C(=O)O)CC[C@@H]1C)[C@H]1O[C@]2(C=C[C@@H](NC(=O)C(=O)NCC3CC3)[C@]3(CC[C@@](C)([C@H]4CC[C@](O)(CC)[C@H](C)O4)O3)O2)[C@H](C)C[C@@H]1C [FLC-00442-1•Na]	1120	0.7	1710	0.4	53.9	14.0	32.3	23.3	38.9	19.4	102	7.4	340	2.22	754
CC[C@@H](C(=O)[C@@H](C)[C@@H](O)[C@H](C)[C@@H]1O[C@@H]([C@@H](CC)C(=O)O)CC[C@@H]1C)[C@H]1O[C@]2(C=C[C@@H](NC(=O)C(=O)NC)[C@]3(CC[C@@](C)([C@H]4CC[C@](O)(CC)[C@H](C)O4)O3)O2)[C@H](C)C[C@@H]1C [FLC-00443-1•Na]	6190	0.7	3970	1.0	477	8.6	23.3	176	23.4	175	554	7.4	2620	1.57	4110
CC[C@@H](C(=O)[C@@H](C)[C@@H](O)[C@H](C)[C@@H]1O[C@@H]([C@@H](CC)C(=O)O)CC[C@@H]1C)[C@H]1O[C@]2(C=C[C@@H](NC(=O)OCCCCCCCl)[C@]3(CC[C@@](C)([C@H]4CC[C@](O)(CC)[C@H](C)O4)O3)O2)[C@H](C)C[C@@H]1C [FLC-00444-1•Na]	105	1.4	627	0.2	4	36.9	98.9	1.5	98.9	1.5	21.3	6.9	53.7	2.75	148
CC[C@@H](C(=O)[C@@H](C)[C@@H](O)[C@H](C)[C@@H]1O[C@@H]([C@@H](CC)C(=O)O)CC[C@@H]1C)[C@H]1O[C@]2(C=C[C@@H](NC(=O)OCCOCc3ccccc3)[C@]3(CC[C@@](C)([C@H]4CC[C@](O)(CC)[C@H](C)O4)O3)O2)[C@H](C)C[C@@H]1C [FLC-00451-1•Na]	126	1.6	542	0.4	42	4.9	96.0	2.13	127.9	1.6	14.7	13.9	307	0.67	204
CC[C@@H](C(=O)[C@@H](C)[C@@H](O)[C@H](C)[C@@H]1O[C@@H]([C@@H](CC)C(=O)O)CC[C@@H]1C)[C@H]1O[C@]2(C=C[C@@H](NC(=O)OCCOCCCl)[C@]3(CC[C@@](C)([C@H]4CC[C@](O)(CC)[C@H](C)O4)O3)O2)[C@H](C)C[C@@H]1C [FLC-00454-1•Na]	103	3.0	1040	0.3	63.1	5.0	58.9	5.32	17.8	17.6	45.2	6.9	434	0.72	313
CC[C@@H](C(=O)[C@@H](C)[C@@H](O)[C@H](C)[C@@H]1O[C@@H]([C@@H](CC)C(=O)O)CC[C@@H]1C)[C@H]1O[C@]2(C=C[C@@H](NC(=O)C3CCCC3)[C@]3(CC[C@@](C)([C@H]4CC[C@](O)(CC)[C@H](C)O4)O3)O2)[C@H](C)C[C@@H]1C [FLC-00455-1•Na]	165	2.0	140	2.3	60.7	5.3	232.6	1.39	112.3	2.87	33	9.8	54.5	5.91	323
CC[C@@H](C(=O)[C@@H](C)[C@@H](O)[C@H](C)[C@@H]1O[C@@H]([C@@H](CC)C(=O)O)CC[C@@H]1C)[C@H]1O[C@]2(C=C[C@@H](NC(=O)C(=O)NCCCc3ccccc3)[C@]3(CC[C@@](C)([C@H]4CC[C@](O)(CC)[C@H](C)O4)O3)O2)[C@H](C)C[C@@H]1C [FLC-00458-1•Na]	323	2.2	1590	0.5	84.4	8.6	29.6	24.5	31.3	23.2	61.9	11.7	368	1.97	727
